According to patent publication US20020065219A1, “Water soluble thiazolyl peptide derivatives” (priority 2000, published 2002):
≈ marks a conversion by molar mass, not a printed value.

What was measured:
[1] = system: Staphylococcus aureus A15090; experiment: animal or person; type: in vivo, female ICR mice; conditions: A15090, in Mus musculus, iv, 1 h, read-out: PD50 (dose which protects 50% of mice from mortality)
[2] = system: Enterococcus faecalis A20688; experiment: MIC, broth micro dilution assay (NCCLS); type: cell-based; conditions: for MIC: Enterococcus faecalis, A20688, 18 h, read-out: MIC (μg/mL) against Enterococcus faecalis A20688
[3] = system: Streptococcus pneumoniae A28272; experiment: MIC, broth micro dilution assay (NCCLS); type: cell-based; conditions: for MIC: Streptococcus pneumoniae, A28272, 18 h, read-out: MIC (μg/mL) against Streptococcus pneumoniae A28272
[4] = system: Staphylococcus aureus A15090; experiment: MIC, broth micro dilution assay (NCCLS); type: cell-based; conditions: for MIC: Staphylococcus aureus, A15090, 18 h, read-out: MIC (μg/mL) against Staphylococcus aureus A15090

Row | Compound | ED50 [1] [mg/kg] | MIC [2] [µg/mL] | MIC [3] [µg/mL] | MIC [4] [µg/mL] | MIC (μg/mL) against Enterococcus faecalis A20688 [2] [µg/mL] | MIC (μg/mL) against Streptococcus pneumoniae A28272 [3] [µg/mL] | MIC (μg/mL) against Staphylococcus aureus A15090 [4] [µg/mL]
1 | CO/C(C)=C1/NC(=O)C(C(C)O)NC(=O)c2csc(n2)-c2cc(O)c(-c3nc(C(=O)NC(CN4CCN(C)CC4)C(N)=O)cs3)nc2-c2csc(n2)C2COC(=O)c3c4c5c(cccc5n3O)COC(=O)C(O[C@H]3C[C@](C)(O)[C@H](N(C)C)[C@H](C)O3)C(OC4)C(NC(=O)c3csc1n3)c1nc(cs1)C(=O)N2 (some centres unmarked) [Example 1] | 0.19 to 7.3 | 0.5 (≈ 0.325 µM) | 0.125 (≈ 0.0813 µM) | 0.25 (≈ 0.163 µM) |  |  | 
2 | CO/C(C)=C1/NC(=O)C(C(C)O)NC(=O)c2csc(n2)-c2cc(O)c(-c3nc(C(=O)NC(CN(C)CCO)C(N)=O)cs3)nc2-c2csc(n2)C2COC(=O)c3c4c5c(cccc5n3O)COC(=O)C(O[C@H]3C[C@](C)(O)[C@H](N(C)C)[C@H](C)O3)C(OC4)C(NC(=O)c3csc1n3)c1nc(cs1)C(=O)N2 (some centres unmarked) [Example 2] | 0.19 to 7.3 | 0.06 (≈ 0.0397 µM) | 0.015 (≈ 0.00992 µM) | 0.015 (≈ 0.00992 µM) |  |  | 
3 | CO/C(C)=C1/NC(=O)C(C(C)O)NC(=O)c2csc(n2)-c2cc(O)c(-c3nc(C(=O)NC(CNCCc4ccccn4)C(N)=O)cs3)nc2-c2csc(n2)C2COC(=O)c3c4c5c(cccc5n3O)COC(=O)C(O[C@H]3C[C@](C)(O)[C@H](N(C)C)[C@H](C)O3)C(OC4)C(NC(=O)c3csc1n3)c1nc(cs1)C(=O)N2 (some centres unmarked) [Example 3] | 0.19 to 7.3 | 1 (≈ 0.641 µM) | 0.25 (≈ 0.16 µM) | 1 (≈ 0.641 µM) |  |  | 
4 | CO/C(C)=C1/NC(=O)C([C@@H](C)O)NC(=O)c2csc(n2)-c2cc(O)c(-c3nc(C(=O)NC(CNCCCn4ccnc4)C(N)=O)cs3)nc2-c2csc(n2)[C@@H]2COC(=O)c3c4c5c(cccc5n3O)COC(=O)[C@@H](O[C@H]3C[C@](C)(O)[C@H](N(C)C)[C@H](C)O3)[C@H](OC4)[C@H](NC(=O)c3csc1n3)c1nc(cs1)C(=O)N2 (some centres unmarked) [Example 5] | 0.19 to 7.3 | 1 (≈ 0.64 µM) | 0.03 (≈ 0.0192 µM) | 1 (≈ 0.64 µM) |  |  | 
5 | CCN(CC)CCN(C)CC(NC(=O)c1csc(-c2nc3c(cc2O)-c2nc(cs2)C(=O)NC(C(C)O)C(=O)N/C(=C(\C)OC)c2nc(cs2)C(=O)NC2c4nc(cs4)C(=O)NC(COC(=O)c4c5c6c(cccc6n4O)COC(=O)C(O[C@H]4C[C@](C)(O)[C@H](N(C)C)[C@H](C)O4)C2OC5)c2nc-3cs2)n1)C(N)=O (some centres unmarked) [Example 6] | 0.19 to 7.3 | 2 (≈ 1.28 µM) | 0.03 (≈ 0.0191 µM) | 0.125 (≈ 0.0797 µM) |  |  | 
6 | CO/C(C)=C1/NC(=O)C(C(C)O)NC(=O)c2csc(n2)-c2cc(O)c(-c3nc(C(=O)NC(CN(C)C)C(N)=O)cs3)nc2-c2csc(n2)C2COC(=O)c3c4c5c(cccc5n3O)COC(=O)C(O[C@H]3C[C@](C)(O)[C@H](N(C)C)[C@H](C)O3)C(OC4)C(NC(=O)c3csc1n3)c1nc(cs1)C(=O)N2 (some centres unmarked) [Example 7] | 0.19 to 7.3 | 0.125 (≈ 0.0843 µM) | 0.03 (≈ 0.0202 µM) | 0.06 (≈ 0.0405 µM) |  |  | 
7 | CO/C(C)=C1/NC(=O)C([C@@H](C)O)NC(=O)c2csc(n2)-c2cc(O)c(-c3nc(C(=O)NC(CN4CCOCC4)C(N)=O)cs3)nc2-c2csc(n2)[C@@H]2COC(=O)c3c4c5c(cccc5n3O)COC(=O)[C@@H](O[C@H]3C[C@](C)(O)[C@H](N(C)C)[C@H](C)O3)[C@@H](OC4)[C@H](NC(=O)c3csc1n3)c1nc(cs1)C(=O)N2 (some centres unmarked) [Example 8] | 0.19 to 7.3 | 0.125 (≈ 0.082 µM) | 0.003 (≈ 0.00197 µM) | 0.015 (≈ 0.00984 µM) |  |  | 
8 | CO/C(C)=C1/NC(=O)C(C(C)O)NC(=O)c2csc(n2)-c2cc(O)c(-c3nc(C(=O)NC(CN(C)CCN(C)C)C(N)=O)cs3)nc2-c2csc(n2)C2COC(=O)c3c4c5c(cccc5n3O)COC(=O)C(O[C@H]3C[C@](C)(O)[C@H](N(C)C)[C@H](C)O3)C(OC4)C(NC(=O)c3csc1n3)c1nc(cs1)C(=O)N2 (some centres unmarked) [Example 9] | 0.19 to 7.3 | 0.5 (≈ 0.325 µM) | 0.007 (≈ 0.00455 µM) | 0.06 (≈ 0.039 µM) |  |  | 
9 | CNC(=O)On1c2c3c4c(cccc41)COC(=O)C(OC1CC(C)(O)C(N(C)C)C(C)O1)C(OC3)C1NC(=O)c3csc(n3)/C(=C(/C)OC)NC(=O)C(C(C)O)NC(=O)c3csc(n3)-c3cc(O)c(-c4nc(C(=O)NC(CN(CCN(C)C)C(=O)NC)C(N)=O)cs4)nc3-c3csc(n3)C(COC2=O)NC(=O)c2csc1n2 (centres unmarked) [Example 111] |  |  |  |  | 2.0 (≈ 1.22 µM) | 0.06 (≈ 0.0366 µM) | 1.0 (≈ 0.61 µM)
